Experimental data taken from US8309545B2, “Benzofuran potassium channel blockers and uses thereof” (Bionomics Limited, priority 2006, dated 2012).

molecular target: T1, human Kv1.3 ion channel (Homo sapiens, UniProt P22001); assay: Inhibition of Kv1.3 currents, planar patch clamp in Jurkat cells; assay type: cell-based; conditions: Human Jurkat cells (endogenous hKv1.3), averaged dose response data from 3 or more cells
T1 construct: Human Jurkat cells (which endogenously express hKv1.3) were used in place of rat L929 cells; endogenous in cells; host or cells: Human Jurkat cells
T1 sequence (P22001 whole entry): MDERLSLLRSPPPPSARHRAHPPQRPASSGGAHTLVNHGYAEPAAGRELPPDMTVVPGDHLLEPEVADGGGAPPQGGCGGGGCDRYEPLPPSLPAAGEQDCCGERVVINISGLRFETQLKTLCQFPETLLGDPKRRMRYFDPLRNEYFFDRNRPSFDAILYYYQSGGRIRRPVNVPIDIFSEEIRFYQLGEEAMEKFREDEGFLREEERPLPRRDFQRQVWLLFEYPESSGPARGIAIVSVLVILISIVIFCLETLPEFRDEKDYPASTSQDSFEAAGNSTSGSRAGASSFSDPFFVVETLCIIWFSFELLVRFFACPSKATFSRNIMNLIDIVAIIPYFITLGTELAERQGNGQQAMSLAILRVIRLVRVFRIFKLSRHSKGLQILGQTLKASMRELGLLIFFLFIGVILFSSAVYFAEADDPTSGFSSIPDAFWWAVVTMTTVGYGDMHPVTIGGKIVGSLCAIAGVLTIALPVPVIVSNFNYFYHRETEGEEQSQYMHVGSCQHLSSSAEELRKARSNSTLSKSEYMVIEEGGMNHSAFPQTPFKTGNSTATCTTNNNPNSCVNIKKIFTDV
Procedure: Potency of compounds to inhibit the human Kv1.3 ion channel were determined as follows:
EC50 values for inhibition of Kv1.3 currents were determined by the method according to Schmitz et al (2005) Molecular Pharmacology 68, 1254-1270 with the following differences: • 1. Human Jurkat cells (which endogenously express hKv1.3) were used in place of rat L929 cells. • 2. All electrophysiology was performed using planar patch clamp (Port-A-Patch, Nanion Technologies Gmbh, Munich) in contrast to conventional patch clamp. • 3. EC50 values shown were determined from averaged dose response data obtained from 3 or more cells.

Row | SMILES | EC50 [nM]
1 | CC(=O)c1c(OCCN2CCOCC2)c(OCCC(C)(C)c2ccccc2)c2occc2c1C (racemic) [Example 46b, rac-1-[4-Methyl-7-(3-methyl-3-phenyl-butoxy)-6-(2-morpholin-4-yl-ethoxy)-benzofuran-5-yl]ethanone] | 198
2 | Cc1cc(=O)c2c(C)c3ccoc3c(OC[C@H]3C[C@@H]3c3ccccc3)c2o1 (racemic) [Example 58a, rac-4,7-Dimethyl-9-(1S,2S-2-phenyl-cyclopropylmethoxy)-furo[3,2-g]chromen-5-one] | 165
3 | CC(=O)c1c(O)c(OC[C@H]2C[C@@H]2c2ccccc2)c2occc2c1C (racemic) [Example 58b, rac-1-[6-Hydroxy-4-methyl-7-(1S,2S-2-phenyl-cyclopropylmethoxy)-benzofuran-5-yl]-ethanone] | 512
4 | Cc1cc(=O)c2c(C)c3ccoc3c(OC[C@H]3C[C@H]3c3ccccc3)c2o1 (racemic) [Example 59a, rac-4,7-Dimethyl-9-(1S,2R-2-phenyl-cyclopropylmethoxy)-furo[3,2-g]chromen-5-one] | 215
5 | COc1c2occc2c(C)c2c(=O)cc(C)oc12 [4 a)] | 790
6 | COc1c(OCCCc2ccccc2)c(C(C)=O)c(C)c2ccoc12 [4 c)] | 225
7 | COc1c(C(C)=O)c(OCCOc2ccccc2)c(OC)c2occc12 [5 b)] | 880
8 | COc1c(C(C)=O)c(OCCCOc2ccccc2)c(OC)c2occc12 [6 b)] | 720
9 | COc1c(C(C)=O)c(OCCCc2ccccc2)c(CN(C)C)c2occc12 [13 b)] | 480
10 | COc1c(C(C)=O)c(OCCCCOc2ccccc2)c(OCCN2CCOCC2)c2occc12 [14 c)] | 910
11 | COc1c(C(C)=O)c(OCCN(C)C)c(OCCCc2ccccc2)c2occc12 [15 b)] | 160
12 | Cc1cc(=O)c2c(C)c3ccoc3c(OCCCc3ccccc3)c2o1 [18 a)] | 114
13 | CC(=O)c1c(OCCN(C)C)c(OCCCc2ccccc2)c2occc2c1C [18 c)] | 420
14 | CC(=O)c1c(OCCn2ccnc2)c(OCCCc2ccccc2)c2occc2c1C [20 b)] | 68
15 | CC(=O)c1c(OCCn2nnc(N)n2)c(OCCCc2ccccc2)c2occc2c1C [21 a)] | 23
16 | CC(=O)c1c(OCCn2nnnc2N)c(OCCCc2ccccc2)c2occc2c1C [21 b)] | 160
17 | CC(=O)c1cc2ccoc2c(OCCCc2ccccc2)c1OCCN1CCOCC1 [22 c)] | 610
18 | CC(=O)c1c(OCCN2CCOCC2)cc2occc2c1OCCCCOc1ccccc1 [23 d)] | 174
19 | CC(=O)c1c(OCCCCN2CCOCC2)c(OCCCc2ccccc2)c2occc2c1C [28 b)] | 640
20 | COc1c(C(C)=O)c(OCCCc2ccccc2)c(OC)c2occc12 [Example 1, 5-Acetyl-4,7-dimethoxy-6-(3-(phenyl)propoxy)benzofuran] | 290
21 | COc1c(C(C)=O)c(OCCCCOc2ccccc2)c(OC)c2occc12 [Example 2] | 420
22 | CC(=O)c1cc2ccoc2cc1OCCCc1ccccc1 [Example 3, 5-Acetyl-6-(3-phenylpropoxy)benzofuran] | 184
23 | COc1c(C(C)=O)c(OCCSc2ccccc2)c(OC)c2occc12 [Example 7, 5-Acetyl-4,7-dimethoxy-6-(2-(thiophenoxy)ethoxy)benzofuran] | 680
24 | COc1c(C(C)=O)c(OCCCSc2ccccc2)c(OC)c2occc12 [Example 8, 5-Acetyl-4,7-dimethoxy-6-(3-(phenylthio)propoxy)benzofuran] | 750
25 | COc1c(C(C)=O)c(OCCS(=O)(=O)c2ccccc2)c(OC)c2occc12 [Example 9, 5-Acetyl-4,7-dimethoxy-6-(2-(benzenesulfonyl)ethoxy)benzofuran] | 2420
26 | COc1c(C(C)=O)c(OCCCS(=O)(=O)c2ccccc2)c(OC)c2occc12 [Example 10, 5-Acetyl-4,7-dimethoxy-6-(3-(benzenesulfonyl)propoxy)benzofuran] | 1510

Row | SMILES | EC50 [nM]
27 | COc1c(C(C)=O)c(OCCNc2ccccc2)c(OC)c2occc12 [Example 11, 5-Acetyl-4,7-dimethoxy-6-(2-(phenylamino)ethoxy)benzofuran] | 980
28 | COc1c(C(C)=O)c(OCCCNc2ccccc2)c(OC)c2occc12 [Example 12, 5-Acetyl-4,7-dimethoxy-6-(3-(phenylamino)propoxy)benzofuran] | 690
29 | COc1c(C(C)=O)c(OCCN2CCOCC2)c(OCCCc2ccccc2)c2occc12 [Example 16, 5-Acetyl-6-(2-morpholinoethoxy)-4-methoxy-7-(3-phenylpropoxy)benzofuran] | 110
30 | COc1c(C(C)=O)c(OCCn2ccnc2)c(OCCCc2ccccc2)c2occc12 [Example 17, 5-Acetyl-6-(2-imidazol-1-ylethoxy)-4-methoxy-7-(3-phenylpropoxy)benzofuran] | 81
31 | CC(=O)c1c(OCCN2CCOCC2)c(OCCCc2ccccc2)c2occc2c1C [Example 19, 5-Acetyl-6-(2-morpholinoethoxy)-4-methyl-7-(3-phenylpropoxy)benzofuran] | 51
32 | CCOC(=O)CC(=O)c1c(OCCN2CCOCC2)cc2occc2c1OCCCCOc1ccccc1 [Example 24, 3-[6-(2-Morpholin-4-ylethoxy)-4-(4-phenoxybutoxy)benzofuran-5-yl]-3-oxo-propionic acid ethyl ester] | 590
33 | CC(=O)c1c(OCCN(C)C)cc2occc2c1OCCCCOc1ccccc1 [Example 25, 5-Acetyl-6-(2-dimethylamino-ethoxy)-4-(4-phenoxybutoxy)benzofuran] | 600
34 | CC(=O)c1c(OCCN2CCN(C)CC2)c(OCCCc2ccccc2)c2occc2c1C [Example 26] | 140
35 | CC(=O)c1c(OCCCn2ccnc2)c(OCCCc2ccccc2)c2occc2c1C [Example 29, 5-Acetyl-6-(3-imidazol-1-yl-propoxy)-4-methyl-7-(3-phenylpropoxy)-benzofuran] | 136
36 | CC(=O)c1c(OCCCCn2ccnc2)c(OCCCc2ccccc2)c2occc2c1C [Example 30, 5-Acetyl-6-(4-imidazol-1-yl-butoxy)-4-methyl-7-(3-phenylpropoxy)-benzofuran] | 120
37 | CC(=O)c1c(OCCOc2cnccn2)c(OCCCc2ccccc2)c2occc2c1C [Example 31b, 1-{4-Methyl-7-(3-phenyl-propoxy)-6-[2-(pyrazin-2-yloxy)-ethoxy]-benzofuran-5-yl}-ethanone] | 81
38 | CC(=O)c1c(OCCNC2CCCC2)c(OCCCc2ccccc2)c2occc2c1C [Example 32, 1-[6-(2-Cyclopentylamino-ethoxy)-4-methyl-7-(3-phenyl-propoxy)-benzofuran-5-yl]-ethanone] | 49
39 | CC(=O)c1c(OCCN2CCCCC2)c(OCCCc2ccccc2)c2occc2c1C [Example 33, 1-[4-Methyl-7-(3-phenyl-propoxy)-6-(2-piperidin-1-yl-ethoxy)-benzofuran-5-yl]-ethanone] | 343
40 | CC(=O)c1c(OCCN2CCCC2)c(OCCCc2ccccc2)c2occc2c1C [Example 34, 1-[4-Methyl-7-(3-phenyl-propoxy)-6-(2-pyrrolidin-1-yl-ethoxy)-benzofuran-5-yl]-ethanone] | 223
41 | CC(=O)c1c(OCCn2nccn2)c(OCCCc2ccccc2)c2occc2c1C [Example 35, 1-[4-Methyl-7-(3-phenyl-propoxy)-6-(2-[1,2,3]triazol-2-yl-ethoxy)-benzofuran-5-yl]ethanone] | 100
42 | CC(=O)c1c(OCCn2ccnn2)c(OCCCc2ccccc2)c2occc2c1C [Example 36, 1-[4-Methyl-7-(3-phenyl-propoxy)-6-(2-[1,2,3]triazol-1-yl-ethoxy)-benzofuran-5-yl]-ethanone] | 122
43 | CC(=O)c1c(OCCn2cncn2)c(OCCCc2ccccc2)c2occc2c1C [Example 37, 1-[4-Methyl-7-(3-phenyl-propoxy)-6-(2-[1,2,4]triazol-1-yl-ethoxy)-benzofuran-5-yl]-ethanone] | 74
44 | CC(=O)c1c(OCCNCCO)c(OCCCc2ccccc2)c2occc2c1C [Example 39, 5-Acetyl-6-(2-(2-Hydroxy-ethylamino)-ethoxy)-4-methyl-7-(3-phenylpropoxy)-benzofuran] | 576
45 | CC(=O)c1c(OCCc2ccccn2)c(OCCCc2ccccc2)c2occc2c1C [Example 40, 5-Acetyl-4-methyl-7-(3-phenylpropoxy)-6-(2-pyridin-2-yl-ethoxy)benzofuran] | 66
46 | CC(=O)c1c(OCCN2CCOCC2)c(OCCCc2ccccc2)c2oc(Cl)cc2c1C [Example 41, 1-[2-Chloro-4-methyl-6-(2-morpholin-4-yl-ethoxy)-7-(3-phenyl-propoxy)-benzofuran-5-yl]-ethanone] | 215
47 | CC(=O)c1c(OCC(=O)N2CCOCC2)c(OCCCc2ccccc2)c2occc2c1C [Example 42, 2-[5-Acetyl-4-methyl-7-(3-phenyl-propoxy)-benzofuran-6-yloxy]-1-morpholin-4-yl-ethanone] | 480
48 | Cc1cc(=O)c2c(C)c3ccoc3c(OCCOc3ccc(F)cc3)c2o1 [Example 43b, 9-[2-(4-Fluoro-phenoxy)-ethoxy]-4,7-dimethyl-furo[3,2-g]chromen-5-one] | 229
49 | CC(=O)c1c(O)c(OCCOc2ccc(F)cc2)c2occc2c1C [Example 43c, 5-Acetyl-7-(2-(4-fluorophenoxy)-ethoxy)-6-hydroxy-4-methylbenzofuran] | 954
50 | CC(=O)c1c(OCCN2CCOCC2)c(OCCOc2ccc(F)cc2)c2occc2c1C [Example 43e, 1-[7-[2-(4-Fluoro-phenoxy)-ethoxy]-4-methyl-6-(2-morpholin-4-yl-ethoxy)-benzofuran-5-yl]-ethanone] | 286
51 | CC(=O)c1c(OCCc2ccccn2)c(OCCC(C)c2ccc(F)cc2)c2occc2c1C (stereo not drawn) [Example 44d, 5-Acetyl-7-(3-[4-fluorophenyl]butoxy)-4-methyl-6-(2-pyridin-2-yl-ethoxy)benzofuran] | 22
